# Like-named read-outs stand apart in the source and are kept apart here.
# What was measured:
# [1] = type: in vivo
# MC 13/C mammary tumor = experiment: antitumor activity on subcutaneously transplanted mammary tumor in mice (study BCM-1428)
# Method: A product is considered to be active if log10 killed cells is greater than or equal to 0.7. A product is considered to be very active if the log10 killed cells is greater than 2.8.
# 30 to 60 mg of an MC 13/C mammary tumor fragment are transplanted bilaterally, subcutaneously, into the animals subjected to the experiment, generally mice, on day 0. The animals bearing the tumors are randomized before being subjected to the various treatments and controls. In the case of treatment of advanced tumors, the tumors are left to develop until the desired size, the animals having insufficiently developed tumors being eliminated. The animals selected are divided up randomly so as to undergo the treatments and the controls. […] The chemotherapy generally begins from 3 to 22 days after the tumor transplant, according to the type of tumor, and the animals are observed every day. The various groups of animals are weighed three or four times a week until the maximum weight loss is obtained, and then the groups are weighed at least once a week until the end of the trial.
# The tumors are measured two or three times a week until the tumor reaches approximately 2 g or until the animal's death if the latter occurs before the tumor reaches 2 g. The animals are autopsied when they are sacrificed.
# The antitumor activity is determined as a function of the various parameters recorded.
# 0.2 ml per mouse is prepared, according to the usual technique, for intravenous administration, from a commercial solution of 5 cm^3 containing 250 mg of 5 FU to be diluted with 5% glucose in water.
# These solutions are administered simultaneously, after suitable dilution, by infusion.
# [2] = iv 5-FU 34.6 mg/kg/day (total 103.8), days 4,11,18
# [3] = iv 5-FU 55.8 mg/kg/day (total 167.4), days 4,11,18
# [4] = iv 5-FU 90 mg/kg/day (total 270), days 4,11,18
# [5] = iv 5-FU 145 mg/kg/day (total 435), days 4,11,18
# [6] = sc VEGF-Trap 2.5 mg/kg/day (total 15), days 4,7,11,14,18,21
# [7] = sc VEGF-Trap 10 mg/kg/day (total 60), days 4,7,11,14,18,21
# [8] = sc VEGF-Trap 25 mg/kg/day (total 150), days 4,7,11,14,18,21
# [9] = sc VEGF-Trap 40 mg/kg/day (total 240), days 4,7,11,14,18,21
compound,measurement,setting,value
"O=c1[nH]cc(F)c(=O)[nH]1 [5-FU, 5-fluorouracil, reference compound]",% weight loss at the lowest point,[1]; [2],+2.3%
same,Death due to the treatment,[1]; [2],0/5
same,% weight loss at the lowest point,[1]; [3],1.1%
same,Death due to the treatment,[1]; [3],0/5
same,% weight loss at the lowest point,[1]; [4],4.8%
same,Death due to the treatment,[1]; [4],0/5
same,% weight loss at the lowest point,[1]; [5],8.7%
same,Death due to the treatment,[1]; [5],1/5
same,% T/C (inhibition of tumor growth at day 24),MC 13/C mammary tumor; [2],34%
same,T-C days (delay of tumor growth),MC 13/C mammary tumor; [2],4.6 days
same,lck (log cells killed),MC 13/C mammary tumor; [2],0.5
same,% T/C (inhibition of tumor growth at day 24),MC 13/C mammary tumor; [3],12%
same,T-C days (delay of tumor growth),MC 13/C mammary tumor; [3],7.8 days
same,lck (log cells killed),MC 13/C mammary tumor; [3],0.8
same,% T/C (inhibition of tumor growth at day 24),MC 13/C mammary tumor; [4],0%
same,T-C days (delay of tumor growth),MC 13/C mammary tumor; [4],12.5 days
same,lck (log cells killed),MC 13/C mammary tumor; [4],1.3
same,% T/C (inhibition of tumor growth at day 24),MC 13/C mammary tumor; [5],Toxic
"VEGF-Trap: fusion protein: VEGFR1 signal sequence, Ig domain D2 of VEGFR1, Ig domain D3 of VEGFR2, Fc domain of IgG1",% weight loss at the lowest point,[1]; [6],0.9%
same,Death due to the treatment,[1]; [6],0/5
same,% weight loss at the lowest point,[1]; [7],1.1%
same,Death due to the treatment,[1]; [7],0/5
same,% weight loss at the lowest point,[1]; [8],1.1%
same,Death due to the treatment,[1]; [8],0/5
same,% weight loss at the lowest point,[1]; [9],2.3%
same,Death due to the treatment,[1]; [9],0/5
same,% T/C (inhibition of tumor growth at day 24),MC 13/C mammary tumor; [6],32%
same,T-C days (delay of tumor growth),MC 13/C mammary tumor; [6],5.2 days
same,lck (log cells killed),MC 13/C mammary tumor; [6],0.6
same,% T/C (inhibition of tumor growth at day 24),MC 13/C mammary tumor; [7],9%
same,T-C days (delay of tumor growth),MC 13/C mammary tumor; [7],12.1 days
same,lck (log cells killed),MC 13/C mammary tumor; [7],1.3
same,% T/C (inhibition of tumor growth at day 24),MC 13/C mammary tumor; [8],8%
same,T-C days (delay of tumor growth),MC 13/C mammary tumor; [8],13.9 days
same,lck (log cells killed),MC 13/C mammary tumor; [8],1.5
same,% T/C (inhibition of tumor growth at day 24),MC 13/C mammary tumor; [9],4%
same,T-C days (delay of tumor growth),MC 13/C mammary tumor; [9],12.7 days
same,lck (log cells killed),MC 13/C mammary tumor; [9],1.4

# — patent US8388963B2, “Antitumor combinations containing a VEGF-inhibiting agent and 5FU or a derivative thereof” (Aventis Pharma SA, priority 2004, dated 2013)
